Results reported in US11519922B2, “Methods for identifying risk of chemotherapy-induced cardiotoxicity and targeted medical intervention” (Detroit R&D, Inc., priority 2018, dated 2022).
Entries after “also recorded” stand apart in the source; their conditions may differ.

Columns and labels:
H9c2 rat cardiomyocytes = assay: 14,15-DHET in cell media by ELISA; type: cell-based; conditions: 1 μM DOX 2 hr
Description: FIGS. 1A and 1B show the effect of doxorubicin (DOX) on H9c2 rat cardiomyocytes. Cells were treated for 2 hr with media containing 1 μM DOX, washed and kept for 2, 6 and 24 hr in media without DOX. BNP mRNA levels in H9c2 cells were assessed by qRT-PCR (A) and cell media was collected and extracted with ethyl acetate for 14,15-DHET analyses using ELISA kit (Detroit R&D) (B). *p<0.05;
H9c2 cardiomyocytes were treated for 2 hr with and without 1 μM DOX. Levels of 14,15-DHET in cell media increased ˜3-fold (p<0.05) after a 2 hr recovery period prior to detection of cellular hypertrophy at 6 hr and 24 hr recovery periods.
Levels of 14,15-DHET in cardiomyocyte (H9c2 cell) media were assessed by the Detroit R&D 14,15-DHET ELISA. Media, 2 ml, was extracted with 2 ml […]. and levels of 14,15-DHET increased after 2 hr, 6 hr and 24 hr following 2 hr DOX treatment (2 hr, 6 hr and 24 hr recovery) (FIG. 1B).

[1] = tested on: plasma of breast cancer patients; assay: Plasma 14,15-DHET by ELISA in breast cancer patients before and after DOX
Description: Plasma samples were extracted using ethyl acetate and levels of 14,15-DHET were assessed in triplicate for ELISA.
A blind test for the early biomarker, 14,15-DHET (metabolite of sEH), was carried out with plasma samples from 5 breast cancer patients obtained before and after 3 months of DOX treatment (FIG. 4).
Fatty acids in the plasma samples (50 μl/sample) were extracted with ethyl acetate and levels of 14,15-DHET were assessed in triplicate samples using an ELISA kit from Detroit R&D.
Plasma samples from 5 breast cancer patients obtained before (n=5) and after (n=5) 3 months of DOX treatment (60 mg/m^2/injection for 4 injections).
Biologically active fatty acids in the plasma samples (50 μl/sample) were extracted with ethyl acetate, dried and re-suspended with 30 μl of DMF followed by dilution buffer to 900 μl. Levels of 14,15-DHET were assessed in triplicate using an ELISA kit from Detroit R&D (100 μl/well).

[2] = tested on: soluble epoxide hydrolase (sEH) in H9c2 cells; assay: sEH protein expression by Western blot; type: cell-based, rat; conditions: 1 μM DOX 2 hr, cells harvested at 6 hr; normalized by beta-actin
Description: FIGS. 5A and 5B show the effect of doxorubicin (DOX) on soluble epoxide hydrolase (sEH) expression in rat H9c2 cardiomyocytes cells (A) and NAG-1 (MIC-1, GDF-15), a plasma cardiotoxicity biomarker (B). Panel A, cells harvested at 6 hr with (Lane 2) and without (Lane 1) treatment of doxorubicin (DOX) (2 hr, final concentration 1 μM). Protein expression of sEH, GAPDH and beta-actin expressed in the cells were assessed by Western blot analysis. Expression levels of sEH were normalized by beta-actin protein levels and Panel B, Western blot analysis carried out under non-reducing/non-denaturing condition for NAG-1 protein in plasma samples obtained from healthy subjects (pooled plasma sample, control) and 3 breast cancer patients with cardiovascular disease (cardiotoxicity, Innovative Research);
Increased sEH protein levels after DOX treatment was detected by Western blot analysis using sEH antibody (Detroit R&D) (FIG. 5A).

rat serum = assay: Serum fatty acid biomarkers by ELISA in DOX-treated female rats; type: in vivo; conditions: DOX 3 mg/kg/week 2 weeks
Description: To verify that 14,15-DHET levels can be used as an early biomarker for prediction of DOX-dependent cardiotoxicity as previously found in the rat cardiomyocyte study (FIG. 1 and FIG. 2), levels of 14,15-DHET (sEH metabolite) in serum samples from control and DOX-treated rats with and without 2-week recovery were measured using a 14,15-DHET ELISA kit (Detroit R&D).
Levels of 20-HETE (CYP4A/4F-dependent hypertension biomarker) and 8-isoprostane (non-enzymatic oxidative stress biomarker) in rat serum samples were also measured using 20-HETE and 8-isoprostane ELISA kits, respectively, from Detroit R&D.
Biologically active fatty acids were extracted with ethyl acetate from 75 μl of serum samples (n=4) from control and DOX-treated animals with and without 2 weeks recovery. […] However, two weeks after the second injection (2 weeks recovery), when cardiotoxicity was still not detected, levels of 14,15-DHET (a metabolite of soluble epoxide hydrolase) and 8-isoprostane (non-enzymatic oxidative stress biomarker) were increased compared to the control group (FIG. 3B and FIG. 3D). No changes in levels of 20-HETE in rat serum samples between the two groups were observed (FIG. 3C).

[3] = DOX 3 months followed by one-year trastuzumab, HER2-positive breast cancer patients, ref (5); cited from earlier work

increase of 14,15-DHET in cell media (H9c2 rat cardiomyocytes; 2 hr recovery): ~3 fold | increase of plasma 14,15-DHET ([1]; Patient #3, after vs before 3 months of DOX treatment): ~38% | increase of plasma 14,15-DHET ([1]; Patient #4, after vs before 3 months of DOX treatment): ~55% | plasma 14,15-DHET levels ([1]; Patients #2 and #5, after vs before 3 months of DOX treatment): did not significantly increase | sEH protein levels [2]: Increased | Serum 20-HETE (rat serum; 2 weeks recovery): No change
Structure (SMILES): COc1cccc2c1C(=O)c1c(O)c3c(c(O)c1C2=O)C[C@@](O)(C(=O)CO)C[C@@H]3O[C@H]1C[C@H](N)[C@H](O)[C@H](C)O1 [DOX, doxorubicin]
14,15-DHET levels in cell media (H9c2 rat cardiomyocytes; 6 and 24 hr recovery): remained elevated; also recorded: increased | Serum 8-Isoprostane (rat serum; no recovery (~48 hr)): did not significantly change; also recorded: No change | Serum 14,15-DHET (rat serum; no recovery (~48 hr)): did not significantly change; also recorded: No change | Serum 20-HETE (rat serum; no recovery (~48 hr)): did not significantly change; also recorded: No change | cardiac dysfunction including symptomatic heart failure (HF) [3]: 18%
